Laboratory results taken from ChEMBL document CHEMBL3822442, “Synthesis and Pharmacological Characterization of Novel Glucagon-like Peptide-2 (GLP-2) Analogues with Low Systemic Clearance” (J Med Chem, 2016).
pEC50: −log10 of the molar value. Calls of active or inactive are those of the source. The rule behind the calls is not given here. Non-standard residues stand in square brackets, D forms with d. Residues, ends and D or L forms follow the SMILES beside them. Nle = CCCC[C@H](N)C(=O)O

Legend:
Type in all cases: cell-based
[1] = biological target: T1, Glucagon-like peptide 2 receptor (Homo sapiens, UniProt O95838); assay: Agonist activity at human GLP2R expressed in HEK293 cells after 5 hrs by luciferase reporter gene assay
T1 sequence (O95838 whole entry): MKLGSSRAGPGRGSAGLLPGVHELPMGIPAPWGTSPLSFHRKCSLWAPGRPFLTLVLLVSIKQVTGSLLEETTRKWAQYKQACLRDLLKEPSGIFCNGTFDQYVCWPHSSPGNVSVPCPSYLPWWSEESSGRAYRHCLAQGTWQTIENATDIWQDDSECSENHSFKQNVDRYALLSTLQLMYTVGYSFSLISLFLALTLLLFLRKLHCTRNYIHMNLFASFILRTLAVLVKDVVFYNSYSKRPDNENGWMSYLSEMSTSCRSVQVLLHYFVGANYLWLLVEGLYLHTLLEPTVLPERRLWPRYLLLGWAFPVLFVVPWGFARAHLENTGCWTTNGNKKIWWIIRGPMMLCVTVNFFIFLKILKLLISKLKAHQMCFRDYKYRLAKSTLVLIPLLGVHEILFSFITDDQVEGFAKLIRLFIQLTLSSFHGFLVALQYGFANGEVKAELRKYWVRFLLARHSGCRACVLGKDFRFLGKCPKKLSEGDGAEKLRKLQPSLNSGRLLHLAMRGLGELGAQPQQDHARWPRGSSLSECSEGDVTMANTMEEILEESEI

[2] = biological target: T2, Glucagon-like peptide 2 receptor (Homo sapiens) (UniProt O95838); assay: Potency index, ratio of compound EC50 to compound 2 EC50 for human GLP2R expressed in HEK293 cells
T2 sequence (whole entry): T1 sequence (O95838 whole entry)

[3] = biological target: Glucagon-like peptide 1 receptor (Homo sapiens, UniProt P43220); assay: Agonist activity at human GLP1R expressed in HEK293 cells after 5 hrs by luciferase reporter gene assay
HEK293 = assay: Selectivity ratio of EC50 for human GLP1R expressed in HEK293 cells to EC50 for human GLP2R expressed in HEK293
[4] = biological target: Glucagon receptor (Homo sapiens) (UniProt P47871); assay: Agonist activity at human GCGR expressed in HEK293 cells after 5 hrs by luciferase reporter gene assay
Sequence of Glucagon receptor (Homo sapiens) (P47871 whole entry): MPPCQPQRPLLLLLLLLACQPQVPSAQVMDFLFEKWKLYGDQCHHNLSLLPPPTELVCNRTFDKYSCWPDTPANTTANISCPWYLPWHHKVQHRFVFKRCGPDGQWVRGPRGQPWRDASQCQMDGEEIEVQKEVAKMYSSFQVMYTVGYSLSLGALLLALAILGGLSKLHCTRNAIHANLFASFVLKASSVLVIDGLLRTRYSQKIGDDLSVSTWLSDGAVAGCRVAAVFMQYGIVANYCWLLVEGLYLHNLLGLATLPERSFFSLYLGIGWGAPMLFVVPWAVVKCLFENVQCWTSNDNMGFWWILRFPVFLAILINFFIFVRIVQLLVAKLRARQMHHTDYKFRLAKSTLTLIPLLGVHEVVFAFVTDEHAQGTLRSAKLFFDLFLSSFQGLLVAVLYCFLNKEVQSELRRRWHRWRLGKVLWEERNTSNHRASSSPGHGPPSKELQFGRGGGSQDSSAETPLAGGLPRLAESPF

Sequence of Glucagon-like peptide 1 receptor (P43220 whole entry): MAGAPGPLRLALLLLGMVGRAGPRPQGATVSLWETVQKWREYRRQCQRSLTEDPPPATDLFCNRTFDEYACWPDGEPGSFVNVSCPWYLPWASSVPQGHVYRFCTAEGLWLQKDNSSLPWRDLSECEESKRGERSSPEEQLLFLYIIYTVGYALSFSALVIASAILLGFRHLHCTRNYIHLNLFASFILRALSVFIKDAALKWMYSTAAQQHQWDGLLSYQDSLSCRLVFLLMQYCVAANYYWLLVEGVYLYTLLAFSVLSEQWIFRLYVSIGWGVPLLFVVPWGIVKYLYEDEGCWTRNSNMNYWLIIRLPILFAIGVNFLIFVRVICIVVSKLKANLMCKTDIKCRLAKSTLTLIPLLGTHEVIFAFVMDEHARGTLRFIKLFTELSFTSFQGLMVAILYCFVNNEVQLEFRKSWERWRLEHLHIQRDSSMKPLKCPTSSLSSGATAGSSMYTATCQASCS

Row | SMILES | pEC50 [1] | Ratio EC50 [2] | pEC50 [3] | Ratio EC50 (HEK293) | Activity [4]
1 | CCCCC(NC(=O)[C@H](CCC(=O)O)NC(=O)[C@H](CC(=O)O)NC(=O)[C@H](CO)NC(=O)[C@H](Cc1ccccc1)NC(=O)[C@H](CO)NC(=O)CNC(=O)[C@H](CC(=O)O)NC(=O)CNC(=O)[C@@H](N)Cc1cnc[nH]1)C(=O)N[C@@H](CC(N)=O)C(=O)N[C@H](C(=O)N[C@H](C(=O)N[C@H](CC(C)C)C(=O)N[C@@H](CC(=O)O)C(=O)N[C@@H](CC(N)=O)C(=O)N[C@@H](CC(C)C)C(=O)N[C@@H](C)C(=O)N[C@@H](C)C(=O)N[C@@H](CCCNC(=N)N)C(=O)N[C@@H](CC(=O)O)C(=O)N[C@@H](Cc1ccccc1)C(=O)N[C@H](C(=O)N[C@@H](CC(N)=O)C(=O)N[C@@H](Cc1c[nH]c2ccccc12)C(=O)N[C@@H](CC(C)C)C(=O)N[C@H](C(=O)N[C@@H](CCC(N)=O)C(=O)N[C@H](C(=O)N[C@@H](CCCCN)C(N)=O)[C@@H](C)O)[C@@H](C)CC)[C@@H](C)CC)[C@@H](C)CC)[C@@H](C)O (stereo not given in full) | 8.05 | 40 | < 6.00 | > 110 | inactive
2 | CCCC[C@@H](NC(=O)[C@H](CCC(=O)O)NC(=O)[C@H](CC(=O)O)NC(=O)[C@H](CO)NC(=O)[C@H](Cc1ccccc1)NC(=O)[C@H](CO)NC(=O)CNC(=O)[C@H](CC(=O)O)NC(=O)CNC(=O)[C@@H](N)Cc1cnc[nH]1)C(=O)N[C@@H](CC(N)=O)C(=O)N[C@H](C(=O)N[C@H](C(=O)N[C@@H](CC(C)C)C(=O)N[C@@H](CC(=O)O)C(=O)N[C@@H](CC(N)=O)C(=O)N[C@@H](CC(C)C)C(=O)N[C@@H](C)C(=O)N[C@@H](C)C(=O)N[C@@H](CCCNC(=N)N)C(=O)N[C@@H](CC(=O)O)C(=O)N[C@@H](Cc1ccccc1)C(=O)N[C@H](C(=O)N[C@@H](CC(N)=O)C(=O)N[C@@H](Cc1c[nH]c2ccccc12)C(=O)N[C@@H](CC(C)C)C(=O)N[C@H](C(=O)N[C@@H](CCC(N)=O)C(=O)N[C@H](C(=O)N[C@@H](CCCCN)C(N)=O)[C@@H](C)O)[C@@H](C)CC)[C@@H](C)CC)[C@@H](C)CC)[C@@H](C)O | 9.64 | 1 | < 6.00 | > 4300 | inactive
3 | CCCCC(NC(=O)[C@H](CCC(=O)O)NC(=O)[C@H](CC(=O)O)NC(=O)[C@H](CO)NC(=O)[C@H](Cc1ccccc1)NC(=O)[C@H](CO)NC(=O)CNC(=O)[C@H](CC(=O)O)NC(=O)CNC(=O)[C@@H](N)Cc1cnc[nH]1)C(=O)N[C@@H](CC(N)=O)C(=O)N[C@@H](C(=O)N[C@H](C(=O)N[C@@H](CC(C)C)C(=O)N[C@@H](CC(=O)O)C(=O)N[C@@H](CC(N)=O)C(=O)N[C@@H](CC(C)C)C(=O)N[C@@H](C)C(=O)N[C@@H](C)C(=O)N[C@@H](CCCNC(=N)N)C(=O)N[C@@H](CC(=O)O)C(=O)N[C@@H](Cc1ccccc1)C(=O)N[C@H](C(=O)N[C@@H](CC(N)=O)C(=O)N[C@@H](Cc1c[nH]c2ccccc12)C(=O)N[C@@H](CC(C)C)C(=O)N[C@H](C(=O)N[C@@H](CCC(N)=O)C(=O)N[C@H](C(=O)N[C@@H](CCCCN)C(N)=O)[C@@H](C)O)[C@@H](C)CC)[C@@H](C)CC)[C@@H](C)CC)[C@H](C)O (stereo not given in full) | 8.82 | 6.8 | < 6.00 | > 660 | inactive
4 | CCCC[C@H](NC(=O)[C@H](CCC(=O)O)NC(=O)[C@H](CC(=O)O)NC(=O)[C@H](CO)NC(=O)[C@H](Cc1ccccc1)NC(=O)[C@H](CO)NC(=O)[C@@H](C)NC(=O)[C@H](CC(=O)O)NC(=O)CNC(=O)[C@@H](N)Cc1cnc[nH]1)C(=O)N[C@@H](CC(N)=O)C(=O)N[C@H](C(=O)N[C@H](C(=O)N[C@@H](CC(C)C)C(=O)N[C@@H](CC(=O)O)C(=O)N[C@@H](CC(N)=O)C(=O)N[C@@H](CC(C)C)C(=O)N[C@@H](C)C(=O)N[C@@H](C)C(=O)N[C@@H](CCCNC(=N)N)C(=O)N[C@@H](CC(=O)O)C(=O)N[C@@H](Cc1ccccc1)C(=O)N[C@H](C(=O)N[C@@H](CC(N)=O)C(=O)N[C@@H](Cc1c[nH]c2ccccc12)C(=O)N[C@@H](CC(C)C)C(=O)N[C@H](C(=O)N[C@@H](CCC(N)=O)C(=O)N[C@H](C(=O)N[C@@H](CCCCN)C(N)=O)[C@@H](C)O)[C@@H](C)CC)[C@@H](C)CC)[C@@H](C)CC)[C@@H](C)O (H-HGD[dA]SFSDE[Nle]NTILDNLAARDFINWLIQTK-NH2) | 9.70 | 0.91 | < 6.00 | > 5000 | inactive
5 | CCCCC(NC(=O)[C@@H](CCC(=O)O)NC(=O)[C@H](CC(=O)O)NC(=O)[C@H](CO)NC(=O)[C@H](Cc1ccccc1)NC(=O)[C@H](CO)NC(=O)CNC(=O)[C@H](CC(=O)O)NC(=O)CNC(=O)[C@@H](N)Cc1cnc[nH]1)C(=O)N[C@@H](CC(N)=O)C(=O)N[C@H](C(=O)N[C@H](C(=O)N[C@@H](CC(C)C)C(=O)N[C@@H](CC(=O)O)C(=O)N[C@@H](CC(N)=O)C(=O)N[C@@H](CC(C)C)C(=O)N[C@@H](C)C(=O)N[C@@H](C)C(=O)N[C@@H](CCCNC(=N)N)C(=O)N[C@@H](CC(=O)O)C(=O)N[C@@H](Cc1ccccc1)C(=O)N[C@H](C(=O)N[C@@H](CC(N)=O)C(=O)N[C@@H](Cc1c[nH]c2ccccc12)C(=O)N[C@@H](CC(C)C)C(=O)N[C@H](C(=O)N[C@@H](CCC(N)=O)C(=O)N[C@H](C(=O)N[C@@H](CCCCN)C(N)=O)[C@@H](C)O)[C@@H](C)CC)[C@@H](C)CC)[C@@H](C)CC)[C@@H](C)O (stereo not given in full) | 8.15 | 32 | < 6.00 | > 140 | inactive
6 | CCCCC(NC(=O)[C@H](CCC(=O)O)NC(=O)[C@H](CC(=O)O)NC(=O)[C@H](CO)NC(=O)[C@H](Cc1ccccc1)NC(=O)[C@H](CO)NC(=O)CNC(=O)[C@H](CC(=O)O)NC(=O)CNC(=O)[C@@H](N)Cc1cnc[nH]1)C(=O)N[C@@H](CC(N)=O)C(=O)N[C@H](C(=O)N[C@H](C(=O)N[C@@H](CC(C)C)C(=O)N[C@@H](CC(=O)O)C(=O)N[C@@H](CC(N)=O)C(=O)N[C@@H](CC(C)C)C(=O)N[C@@H](C)C(=O)N[C@@H](C)C(=O)N[C@@H](CCCNC(=N)N)C(=O)N[C@@H](CC(=O)O)C(=O)N[C@@H](Cc1ccccc1)C(=O)N[C@H](C(=O)N[C@@H](CC(N)=O)C(=O)N[C@@H](Cc1c[nH]c2ccccc12)C(=O)N[C@@H](CC(C)C)C(=O)N[C@H](C(=O)N[C@@H](CCC(N)=O)C(=O)N[C@@H](C(=O)N[C@@H](CCCCN)C(N)=O)[C@H](C)O)[C@@H](C)CC)[C@@H](C)CC)[C@@H](C)CC)[C@@H](C)O (stereo not given in full) | 8.35 | 20 | < 6.00 | > 220 | inactive
7 | CCCCC(NC(=O)[C@H](CCC(=O)O)NC(=O)[C@H](CC(=O)O)NC(=O)[C@H](CO)NC(=O)[C@H](Cc1ccccc1)NC(=O)[C@H](CO)NC(=O)CNC(=O)[C@H](CC(=O)O)NC(=O)CNC(=O)[C@@H](N)Cc1cnc[nH]1)C(=O)N[C@@H](CC(N)=O)C(=O)N[C@H](C(=O)N[C@H](C(=O)N[C@@H](CC(C)C)C(=O)N[C@@H](CC(=O)O)C(=O)N[C@@H](CC(N)=O)C(=O)N[C@@H](CC(C)C)C(=O)N[C@@H](C)C(=O)N[C@@H](C)C(=O)N[C@@H](CCCNC(=N)N)C(=O)N[C@H](CC(=O)O)C(=O)N[C@@H](Cc1ccccc1)C(=O)N[C@H](C(=O)N[C@@H](CC(N)=O)C(=O)N[C@@H](Cc1c[nH]c2ccccc12)C(=O)N[C@@H](CC(C)C)C(=O)N[C@H](C(=O)N[C@@H](CCC(N)=O)C(=O)N[C@H](C(=O)N[C@@H](CCCCN)C(N)=O)[C@@H](C)O)[C@@H](C)CC)[C@@H](C)CC)[C@@H](C)CC)[C@@H](C)O (stereo not given in full) | 9.33 | 2.1 | < 6.00 | > 2100 | inactive
8 | CCCCC(NC(=O)[C@H](CCC(=O)O)NC(=O)[C@H](CC(=O)O)NC(=O)[C@@H](CO)NC(=O)[C@H](Cc1ccccc1)NC(=O)[C@H](CO)NC(=O)CNC(=O)[C@H](CC(=O)O)NC(=O)CNC(=O)[C@@H](N)Cc1cnc[nH]1)C(=O)N[C@@H](CC(N)=O)C(=O)N[C@H](C(=O)N[C@H](C(=O)N[C@@H](CC(C)C)C(=O)N[C@@H](CC(=O)O)C(=O)N[C@@H](CC(N)=O)C(=O)N[C@@H](CC(C)C)C(=O)N[C@@H](C)C(=O)N[C@@H](C)C(=O)N[C@@H](CCCNC(=N)N)C(=O)N[C@@H](CC(=O)O)C(=O)N[C@@H](Cc1ccccc1)C(=O)N[C@H](C(=O)N[C@@H](CC(N)=O)C(=O)N[C@@H](Cc1c[nH]c2ccccc12)C(=O)N[C@@H](CC(C)C)C(=O)N[C@H](C(=O)N[C@@H](CCC(N)=O)C(=O)N[C@H](C(=O)N[C@@H](CCCCN)C(N)=O)[C@@H](C)O)[C@@H](C)CC)[C@@H](C)CC)[C@@H](C)CC)[C@@H](C)O (stereo not given in full) | 9.72 | 0.86 | < 6.00 | > 5200 | inactive
